Read-outs that look alike come from different tables or passages of the source. Blank lines part the entries; values can stand above or below the compound they belong to.
Legend:
[1] = In vitro stability in human plasma (LC-MS/MS); conditions: after 6 hours incubation at 37° C., in the presence and absence of cadmium chloride
[2] = In vivo acute study, oral administration to Wistar rats; conditions: 570 mg/kg
Protocol: (§1) An LC-MS/MS technique, validated in the 5-250 μM range, with detection limits of 50-20 picomoles, was set-up for this purpose.
(§2) In the in vivo acute studies, D- and L-carnosine were administered orally to Wistar rats (320 g±25 g) in the form of an aqueous solution at pH 7.4 (HCl) at the dose of 570 mg/kg.

[3] = Crossing of the blood-brain barrier (stated, no method)
Zucker rats = assay: Pharmacological effects of chronic treatment in Zucker rats; type: in vivo
Source text: In particular, D-carnosine is effective for the treatment or prevention of disorders involving highly reactive and cytotoxic carbonyl derivatives (HNE, acrolein, malonyldialdehyde, glyoxal and dimethylglyoxal), especially Alzheimer's disease, atherosclerosis, disorders secondary to diabetes, age-associated tissue degeneration such as sarcopenia, and correlated disorders. Forms designed for topical administration are particularly indicated for the latter.

[4] = Reactivity towards HNE in homogeneous solution (aldehyde consumption by liquid chromatography); type: biochemical; conditions: for inhibited HNE: HNE 10 μm in 10 mM phosphate buffer, molar ratios 1:10 and 1:20
Protocol: The almost identical reactivity compared with the L-form towards cytotoxic aldehydes, especially HNE and acrolein, was confirmed in a homogenous solution of HNE (10 μm) and acrolein (200 μm) in 10 mM phosphate buffer in molar ratios of the dipeptides amounting to 1:10 and 1:20. […]

[5] = Chronic treatment with the diet water in obese-Zucker rats: levels in plasma, urine and kidney
Protocol: The stability of L- and D-carnosine was compared in human plasma and serum in vitro, and in vivo in the rat (acute and chronic treatment). An LC-MS/MS technique, validated in the 5-250 μM range, with detection limits of 50-20 picomoles, was set-up for this purpose.
In chronic treatment, D- and L-camosine were administered with the diet water for 12 weeks at a dose of 30 mg/Kg. The experiment was carried out by using obese-Zucker rats (Charles River), an animal model of metabolic disorders, characterized by hyperinsulinemia, insulin resistance, obesity, hypertriglyceridemia, hypercholesterolemia, and by an increased formation of lipid derived carbonyls, protein carbonylation and appearance of carbonyl-dependent degenerative process such as nephropathy and vascular dysfunction, (Metz T O, Alderson N L, Chachich M E, Thorpe S R, Baynes J W, Pyridoxamine traps intermediates in lipid peroxidation reactions in vivo: evidence on the role of lipids in chemical modification of protein and development of diabetic complications, J Biol Chem. 2003 October 24;278(43):42012-9.

[6] = rat, in vivo, po, 570 mg/kg
Protocol: as §1, §2

carnosinases = biological target: T1, carnosinases (Homo sapiens, UniProt Q96KN2); conditions: cited from earlier work
T1 construct: host or cells: human serum
T1 sequence (Q96KN2 27-507 limits assumed): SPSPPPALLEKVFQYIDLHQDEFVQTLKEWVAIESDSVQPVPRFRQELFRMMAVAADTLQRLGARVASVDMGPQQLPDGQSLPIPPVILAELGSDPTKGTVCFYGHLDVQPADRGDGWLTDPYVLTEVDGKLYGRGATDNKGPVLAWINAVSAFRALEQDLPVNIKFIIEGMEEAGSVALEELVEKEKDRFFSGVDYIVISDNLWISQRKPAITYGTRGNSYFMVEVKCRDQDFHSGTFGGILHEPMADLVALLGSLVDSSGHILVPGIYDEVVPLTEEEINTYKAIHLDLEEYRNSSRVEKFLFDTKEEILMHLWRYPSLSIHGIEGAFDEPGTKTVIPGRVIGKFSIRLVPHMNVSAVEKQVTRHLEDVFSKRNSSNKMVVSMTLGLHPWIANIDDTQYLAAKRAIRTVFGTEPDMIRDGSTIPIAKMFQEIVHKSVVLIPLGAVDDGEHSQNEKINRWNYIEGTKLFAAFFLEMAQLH

[7] = 30 mg/Kg with the diet water for 12 weeks

SMILES: NCCC(=O)N[C@H](Cc1cnc[nH]1)C(=O)O [D-carnosine]
stability in human plasma [1]: remained unchanged
Cmax reached at (time) [2]: 2 h
pharmacological levels maintained up to [2]: up to 8 hours
time to disappear from the administration [2]: 24 h
blood-brain barrier crossing [3]: able to cross the blood-brain barrier
pharmacological effects of chronic treatment (Zucker rats): restrain: hypertriglyceridemia, hypercholesterolemia, hyperthenison, and carbonyl related disesases such as vascular dysfunction and nephropathy
activity towards HNE compared with aminoguanidine and methoxyamine [4]: far more active towards HNE than aminoguanidine and methoxyamine
reaction kinetics with HNE [4]: first-order profile
inhibited HNE ([4]; after 24 hours): 98.3%
inhibited HNE ([4]; after one hour's incubation): 49.2%
level in plasma [5, 7]: 1240 ± 300 nM
level in the kidney [5, 7]: 340.2±12.3 nmoles/gr wt tissue
level in urine [5, 7]: 6688±345 nmoles over 24 hrs
increase of D-carnosine in respect to L-carnosine in plasma ([5]; 30 mg/Kg, 12 weeks): 6 fold
increase of D-carnosine in respect to L-carnosine in urine as well as in the kidney ([5]; 30 mg/Kg, 12 weeks): more than a ten-fold increase

stability in human plasma: undetectable
time to disappear from the administration ([6]; Wistar): ≤ 2 h
Cmax (time at which reached) [6]: 60 min
SMILES: NCCC(=O)N[C@@H](Cc1cnc[nH]1)C(=O)O [L-carnosine, β-alanyl-L-histidine]
hydrolysis in human serum (carnosinases): rapidly hydrolysed
inhibited HNE ([4]; after 24 hours): 96.4%
inhibited HNE ([4]; after one hour's incubation): 44%
